Assay results: patent US8816129B2, “PTP1B inhibitors, synthesis thereof and application thereof in preparation of medicaments for treating type 2 diabetes mellitus” (Institute of Oceanology, Chinese Academy of Sciences, priority 2010, dated 2014)
Where two headings read alike, the source gives them in different places.

Legend:
[1] = target: T1, human recombinant PTP1B (hGST-PTP1B) (Homo sapiens, UniProt P18031); assay: PTP1B inhibitory assay (pNPP hydrolysis, absorbance at 405 nm); assay type: biochemical; settings: 2 mM pNPP, 30 nM hGST-PTP1B, pH 6.5, 30° C.; for inhibition at 5 µg/mL: 5 μg/mL compound; for inhibition at 20 µg/mL: 20 μg/mL compound
T1 construct: made in house; host or cells: E. coli BL21
T1 sequence (P18031 1-435): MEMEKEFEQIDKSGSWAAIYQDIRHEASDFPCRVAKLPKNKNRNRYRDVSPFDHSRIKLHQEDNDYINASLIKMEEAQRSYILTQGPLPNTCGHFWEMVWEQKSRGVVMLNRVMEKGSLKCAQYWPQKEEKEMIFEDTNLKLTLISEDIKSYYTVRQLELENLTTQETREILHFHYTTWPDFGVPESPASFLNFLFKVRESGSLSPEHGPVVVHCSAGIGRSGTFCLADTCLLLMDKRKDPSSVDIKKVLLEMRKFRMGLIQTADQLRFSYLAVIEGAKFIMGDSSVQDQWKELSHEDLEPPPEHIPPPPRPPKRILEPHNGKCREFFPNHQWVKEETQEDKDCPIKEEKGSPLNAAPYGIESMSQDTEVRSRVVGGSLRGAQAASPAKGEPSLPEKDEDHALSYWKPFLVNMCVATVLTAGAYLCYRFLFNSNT
Experimental: Construct human recombinant PTP1B engineering bacteria hGST-PTP1B-BL21 via molecular biology methods, and purify it through GST-tagged affinity chromatography. The principle is that the product pNP, which is enzymolysis of pNPP by PTP1B, absorbs at 405 nm. The activity of PTP1B inhibition can be measured by calculating the quantity of pNP.
Compounds 1-12 were dissolved in DMSO. 2 μL of samples were placed into the system (50 mM Tris-HCl, pH 6.5, 2 mM pNPP, 2% DMSO, 30 nM hGST-PTP1B). DMSO was distributed as negative control and Na3VO4 was positive control. The reaction was at 30° C. and monitored at 405 nm for 3 min. Inhibitory rate was calculated according to the following formula: % inhibition=100% ×[(Vsample−VDMSO)/[…]]

PTP1B = target: T2, PTP1B (Homo sapiens, UniProt P18031); settings: background statement; read-out: IC50 (PTP1B inhibitor); cited from earlier work
T2 sequence (P18031 1-435): T1 sequence (P18031 1-435)

inhibition at 5 µg/mL [1] [%]	inhibition at 20 µg/mL [1] [%]	IC50 ([1]; read-out: IC50 (converted)) [µM]	SMILES	IC50 [1] [mg/L]	IC50 (PTP1B) [µM]
47.9	101	1.84	COc1cc(C(=O)c2c(C(Br)Br)cc(OC)c(OC)c2Br)c(Br)c(Br)c1OC [Compound 1, (2′-bromo-6′-(dibromomethyl)-3′,4′-dimethoxyphenyl)-(2,3-dibromo-4,5-dimethoxyphenyl)-methanone]	–	–
55.7	86.2	–	CCCOCc1cc(O)c(O)c(Br)c1Cc1cc(O)c(O)c(Br)c1Br [Compound 2, 3,4-dibromo-5-[2′-bromo-3′,4′-dihydroxy-6′-(propoxymethyl)-benzyl]-benzene-1,2-diol]	1.08	–
68.2	93.9	0.628	CC(C)OCc1cc(O)c(O)c(Br)c1Cc1cc(O)c(O)c(Br)c1Br [Compound 3, 3,4-dibromo-5-[2′-bromo-3′,4′-dihydroxy-6′-(isopropoxymethyl)-benzyl]-benzene-1,2-diol]	–	–
–	101	–	COc1cc(Br)c(Cc2cc(OC)c(OC)c(Br)c2Cc2cc(OC)c(OC)c(Br)c2Br)cc1OC [Compound 7, 2,3-dibromo-1-[2′-bromo-6′-(2″-bromo-4″,5″-dimethoxybenzyl)-3′,4′-dimethoxybenzyl]-4,5-dimethoxybenzene]	–	–
42.4	98.8	1.63	CCCOCc1cc(O)c(O)c(Br)c1Cc1c(Br)c(O)c(O)c(Br)c1Br [Compound 8, 3,4,6-tribromo-5-(2-bromo-3,4-dihydroxy-6-(propoxymethyl)benzyl)benzene-1,2-diol]	–	–
–	98.5	–	CC(C)OCc1cc(O)c(O)c(Br)c1Cc1c(Br)c(O)c(O)c(Br)c1Br [Compound 9, 3,4,6-tribromo-5-(2-bromo-3,4-dihydroxy-6-(isopropoxymethyl)benzyl)benzene-1,2-diol]	–	–
–	57.7	–	Cc1cc(O)c(O)c(Br)c1Cc1c(Br)c(O)c(O)c(Br)c1Br [Compound 12, 3,4,6-tribromo-5-(2-bromo-3,4-dihydroxy-6-methylbenzyl)benzene-1,2-diol]	–	–
–	–	–	CCc1oc2ccccc2c1C(=O)c1cc(Br)c(O)c(Br)c1 [benzbromarone]	–	26

SMILES	inhibition at 5 µg/mL [1] [%]	inhibition at 20 µg/mL [1] [%]	IC50 ([1]; read-out: IC50 (converted)) [µM]	IC50 [1] [mg/L]	IC50 (PTP1B) [µM]
CCCCOCc1cc(O)c(O)c(Br)c1Cc1cc(O)c(O)c(Br)c1Br [Compound 4, 3,4-dibromo-5-[2′-bromo-6′-(butoxymethyl)-3′,4′-dihydroxy-benzyl]-benzene-1,2-diol]	27.2	64.6	–	–	–
CC(C)COCc1cc(O)c(O)c(Br)c1Cc1cc(O)c(O)c(Br)c1Br [Compound 5, 3,4-dibromo-5-[2′-bromo-3′,4′-dihydroxy-6′-(isobutoxymethyl)-benzyl]-benzene-1,2-diol]	48.3	96.2	–	0.83	–
CCC(C)OCc1cc(O)c(O)c(Br)c1Cc1cc(O)c(O)c(Br)c1Br (centres unmarked) [Compound 6, 3,4-dibromo-5-(2-bromo-6-(sec-butoxymethyl)-3,4-dihydroxybenzyl)benzene-1,2-diol]	42.4	96.5	1.82	–	–
CCCCOCc1cc(O)c(O)c(Br)c1Cc1c(Br)c(O)c(O)c(Br)c1Br [Compound 10, 3,4,6-tribromo-5-(2-bromo-6-(butoxymethyl)-3,4-dihydroxybenzyl)benzene-1,2-diol]	–	99	–	–	–
CC(C)COCc1cc(O)c(O)c(Br)c1Cc1c(Br)c(O)c(O)c(Br)c1Br [Compound 11, 3,4,6-tribromo-5-(2-bromo-3,4-dihydroxy-6-(isobutoxymethyl)benzyl)benzene-1,2-diol]	–	101	–	–	–
